Measurements as given in PubChem BioAssay AID192 (DTP/NCI, 2004).
Where “and” joins values, the source holds several entries; their conditions need not be identical. Equal entries are not always repeated. Inconclusive results and toxic doses are left out. Bridge positions count the residues as written; N and C are the ends. Square brackets hold non-standard residues; d marks the D form. Peptide text beside a SMILES is read from it. NMeV = CN[CH](C(=O)O)C(C)C; Sar = CNCC(=O)O

Tested on: BDF1 mice, B16 melanoma ip, median survival T/C
Experiment: NCI In Vivo Anticancer Drug Screen. Data for tumor model B16 Melanoma (intraperitoneal) in B6D2F1 (BDF1) mice
Settings: endpoint: median survival time, higher = longer survival
Method in brief: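 Each result divides a survival or tumor-size measurement in the compound-treated group by the same measurement in the vehicle group.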

[1] = dose: 200.0 mg/kg/injection, schedule: Q01DX009 (ip), vehicle: Klucel (hydroxypropylcellulose) (HPC)
[2] = dose: 400.0 mg/kg/injection, schedule: Q01DX009 (ip), vehicle: Klucel (hydroxypropylcellulose) (HPC)
[3] = dose: 12.5 mg/kg/injection, schedule: Q01DX009 (ip), vehicle: saline with Tween-80
[4] = dose: 25.0 mg/kg/injection, schedule: Q01DX009 (ip), vehicle: saline with Tween-80
[5] = dose: 50.0 mg/kg/injection, schedule: Q01DX009 (ip), vehicle: saline with Tween-80
[6] = dose: 200.0 mg/kg/injection, schedule: Q01DX009 (ip), vehicle: saline with Tween-80
[7] = dose: 1.25 mg/kg/injection, schedule: Q01DX009 (ip), vehicle: Klucel (hydroxypropylcellulose) (HPC)
[8] = dose: 2.5 mg/kg/injection, schedule: Q01DX009 (ip), vehicle: Klucel (hydroxypropylcellulose) (HPC)
[9] = dose: 100.0 mg/kg/injection, schedule: Q01DX009 (ip), vehicle: saline with Tween-80
[10] = dose: 3.12 mg/kg/injection, schedule: Q01DX009 (ip), vehicle: saline
[11] = dose: 12.5 mg/kg/injection, schedule: Q01DX009 (ip), vehicle: saline
[12] = dose: 25.0 mg/kg/injection, schedule: Q01DX009 (ip), vehicle: saline
[13] = dose: 50.0 mg/kg/injection, schedule: Q01DX009 (ip), vehicle: saline
[14] = dose: 100.0 mg/kg/injection, schedule: Q01DX009 (ip), vehicle: Klucel (hydroxypropylcellulose) (HPC)
[15] = dose: 12.5 mg/kg/injection, schedule: Q01DX009 (ip), vehicle: Klucel (hydroxypropylcellulose) (HPC)
[16] = dose: 25.0 mg/kg/injection, schedule: Q01DX009 (ip), vehicle: Klucel (hydroxypropylcellulose) (HPC)

For `CCC(C)C1NC(=O)C(NC(=O)c2c3[nH]c4c(C(=O)NC5C(=O)NC(C(C)CC)C(=O)N6CCCC6C(=O)N(C)CC(=O)N(C)C(C(C)C)C(=O)OC5C)ccc(C)c4oc-3c(C)c(=O)c2=O)C(C)OC(=O)C(C(C)C)N(C)C(=O)CN(C)C(=O)C2CCCN2C1=O` (configuration not stated), the T/C (dose: 0.05 mg/kg/injection, schedule: Q01DX009 (ip), vehicle: water) was 98 % of control, the T/C (dose: 0.1 mg/kg/injection, schedule: Q01DX009 (ip), vehicle: water) was 102 % of control and the T/C (dose: 0.2 mg/kg/injection, schedule: Q01DX009 (ip), vehicle: water) was 97 % of control. For the same compound, the T/C (dose: 0.4 mg/kg/injection, schedule: Q01DX009 (ip), vehicle: water) was 103 % of control, the T/C (dose: 0.8 mg/kg/injection, schedule: Q01DX009 (ip), vehicle: water) was 100 % of control and the T/C (dose: 1.6 mg/kg/injection, schedule: Q01DX009 (ip), vehicle: water) was 101 % of control.
For `CC(=O)c1cccc(NC2C(N)C(NC(=O)N(C)C)(C(C)O)C(C)(O)C2(O)COC(=O)c2c(C)cccc2O)c1` (configuration not stated), the T/C (dose: 0.3 mg/kg/injection, schedule: Q01DX009 (ip), vehicle: saline with Tween-80) was 115 % of control, the T/C (dose: 0.3 mg/kg/injection, schedule: Q01DX009 (ip), vehicle: saline) was 113 % of control and the T/C (dose: 0.5 mg/kg/injection, schedule: Q01DX009 (ip), vehicle: Klucel (hydroxypropylcellulose) (HPC)) was 116 % of control. The T/C (dose: 0.6 mg/kg/injection, schedule: Q01DX009 (ip), vehicle: saline) was 113 % of control, the T/C (dose: 1.0 mg/kg/injection, schedule: Q01DX009 (ip), vehicle: Klucel (hydroxypropylcellulose) (HPC)) was 113 % of control and the T/C (dose: 1.2 mg/kg/injection, schedule: Q01DX009 (ip), vehicle: saline) was 122 % of control.
With `Cc1cccc(C)c1NS(=O)(=O)c1ccccc1` the T/C [1] was 87 % of control and the T/C [2] was 92 % of control.
For `CCOC(=O)Nc1cccc2ccccc12`, the T/C (dose: 100.0 mg/kg/injection, schedule: Q04DX003 (ip), vehicle: Klucel (hydroxypropylcellulose) (HPC)) was 102 % of control, the T/C (dose: 200.0 mg/kg/injection, schedule: Q04DX003 (ip), vehicle: Klucel (hydroxypropylcellulose) (HPC)) was 105 % of control and the T/C (dose: 400.0 mg/kg/injection, schedule: Q04DX003 (ip), vehicle: Klucel (hydroxypropylcellulose) (HPC)) was 102 % of control.
`CC(=O)Nc1ccc2c(c1)C[N+](C)(C1CCCCC1)CO2` (configuration not stated) was tested, and the T/C [3] was 106 % of control and the T/C [4] was 113 % of control.
For `CCCCCCCCCCOCCCCCCCCCC`, the T/C [3] was 95 % of control, the T/C [4] was 95 % of control and the T/C [5] was 95 % of control. The T/C [6] was 88 % of control and the T/C (dose: 400.0 mg/kg/injection, schedule: Q01DX009 (ip), vehicle: saline with Tween-80) was 88 % of control.
In the case of `CC1(C)CC[C@H](C2=CC(=O)c3c(O)ccc(O)c3C2=O)O1`, the T/C [7] is reported as 99 % of control, the T/C [8] is reported as 97 % of control and the T/C (dose: 5.0 mg/kg/injection, schedule: Q01DX009 (ip), vehicle: Klucel (hydroxypropylcellulose) (HPC)) is reported as 97 % of control. The T/C (dose: 10.0 mg/kg/injection, schedule: Q01DX009 (ip), vehicle: Klucel (hydroxypropylcellulose) (HPC)) was 92 % of control and the T/C (dose: 20.0 mg/kg/injection, schedule: Q01DX009 (ip), vehicle: Klucel (hydroxypropylcellulose) (HPC)) was 93 % of control.
In the case of `CCOC(=O)c1ccc(OC(=O)Nc2ccccc2)cc1`, the T/C [4] is reported as 97 % of control, the T/C [5] is reported as 97 % of control and the T/C [9] is reported as 93 % of control and 95 % of control.
With `FC1(F)SC2C3CC(C4CCC=C43)C2C1(F)F` (configuration not stated) the T/C (dose: 0.39 mg/kg/injection, schedule: Q01DX009 (ip), vehicle: Klucel (hydroxypropylcellulose) (HPC)) was 89 % of control and the T/C (dose: 0.78 mg/kg/injection, schedule: Q01DX009 (ip), vehicle: Klucel (hydroxypropylcellulose) (HPC)) was 103 % of control.
`CC(Cc1ccccc1)NCCn1cnc2c1c(=O)n(C)c(=O)n2C` (configuration not stated) was tested, and the T/C [10] was 112 % of control, the T/C (dose: 6.25 mg/kg/injection, schedule: Q01DX009 (ip), vehicle: saline) was 115 % of control and the T/C [11] was 100 % of control. The T/C [12] was 109 % of control and the T/C [13] was 115 % of control.
In the case of `CCOc1ccccc1NC(=O)Nc1ccccc1OC`, the T/C [14] is reported as 86 % of control, the T/C [1] is reported as 98 % of control and the T/C [2] is reported as 89 % of control.
With `CC(CN=Cc1ccccc1O)N=Cc1ccccc1O` (configuration not stated) the T/C [15] was 91 % of control, the T/C [16] was 88 % of control and the T/C (dose: 50.0 mg/kg/injection, schedule: Q01DX009 (ip), vehicle: Klucel (hydroxypropylcellulose) (HPC)) was 87 % of control. For the same compound, the T/C [14] was 89 % of control.
In the case of `O=C1C(=O)c2ccccc2-c2ccccc21.O=C1C(=O)c2ccccc2-c2ccccc21.[Hg]`, the T/C (dose: 1.5 mg/kg/injection, schedule: Q01DX009 (ip), vehicle: saline with Tween-80) is reported as 94 % of control and 99 % of control and the T/C (dose: 3.0 mg/kg/injection, schedule: Q01DX009 (ip), vehicle: saline with Tween-80) is reported as 88 % of control and 90 % of control.
For `N=C(N)c1ccc(N=NNc2ccc(C(=N)N)cc2)cc1`, the T/C [3] was 101 % of control, the T/C [4] was 112 % of control and the T/C [5] was 114 % of control.
`Cc1cc(=NO)cc(C)n1O` was tested, and the T/C (dose: 25.0 mg/kg/injection, schedule: Q01DX009 (ip), vehicle: distilled water + alcohol) was 100 % of control, the T/C (dose: 50.0 mg/kg/injection, schedule: Q01DX009 (ip), vehicle: distilled water + alcohol) was 98 % of control and the T/C (dose: 200.0 mg/kg/injection, schedule: Q01DX009 (ip), vehicle: distilled water + alcohol) was 86 % of control.
In the case of `N=c1ccn2c(n1)OC1C(O)C(CO)OC12` (configuration not stated), the T/C [11] is reported as 98 % of control, the T/C [12] is reported as 96 % of control and 109 % of control and the T/C [13] is reported as 102 % of control and 108 % of control and 117 % of control. For the same compound, the T/C (dose: 100.0 mg/kg/injection, schedule: Q01DX009 (ip), vehicle: saline sonified) was 104 % of control, the T/C (dose: 100.0 mg/kg/injection, schedule: Q01DX009 (ip), vehicle: saline) was 120 % of control and 105 % of control and the T/C (dose: 200.0 mg/kg/injection, schedule: Q01DX009 (ip), vehicle: saline sonified) was 104 % of control. The T/C (dose: 200.0 mg/kg/injection, schedule: Q01DX009 (ip), vehicle: saline) was 114 % of control and 124 % of control and the T/C (dose: 400.0 mg/kg/injection, schedule: Q01DX009 (ip), vehicle: saline sonified) was 110 % of control.
`NNCCc1ccccc1` was tested, and the T/C [10] was 94 % of control, the T/C [11] was 117 % of control and the T/C [12] was 100 % of control. The T/C [13] was 97 % of control.
For `O=c1cc(-c2ccccc2)[nH]c(=S)[nH]1`, the T/C [9] was 114 % of control and the T/C [6] was 108 % of control.
For `COc1cc2c(c(OC)c1OC)-c1ccc(OC)c(=O)cc1C(NC(=O)COc1ccccc1)CC2` (configuration not stated), the T/C [7] was 175 % of control and the T/C [8] was 188 % of control.
In the case of `COc1cccc(C(Cc2ccccc2)NCc2ccccc2)c1` (configuration not stated), the T/C [14] is reported as 106 % of control, the T/C [1] is reported as 100 % of control and the T/C [2] is reported as 96 % of control.
In the case of `Cc1ccc(NC(=O)Nc2cccc3ccccc23)cc1Cl`, the T/C [15] is reported as 94 % of control and the T/C [16] is reported as 88 % of control.
With `CC(C)C1NC(=O)C(N)C(C)OC(=O)C(C(C)C)N(C)C(=O)CN(C)C(=O)C2CCCN2C1=O` (configuration not stated) (tested in a mixture with another compound) (H-TVP[Sar][NMeV]; ester 1-C; configuration not given here) the T/C (dose: 0.22 mg/kg/injection, schedule: Q01DX009 (ip), vehicle: water) was 156 % of control, the T/C (dose: 25.0 micrograms/kg/injection, schedule: Q01DX009 (ip), vehicle: saline + alcohol) was 107 % of control and the T/C (dose: 50.0 micrograms/kg/injection, schedule: Q01DX009 (ip), vehicle: saline + alcohol) was 122 % of control. For the same compound, the T/C (dose: 75.0 micrograms/kg/injection, schedule: Q04DX003 (ip), vehicle: saline + alcohol) was 107 % of control and 114 % of control, the T/C (dose: 150.0 micrograms/kg/injection, schedule: Q04DX003 (ip), vehicle: saline + alcohol) was 116 % of control and the T/C (dose: 200.0 micrograms/kg/injection, schedule: Q01DX009 (ip), vehicle: saline + alcohol) was 150 % of control. For the same compound, the T/C (dose: 300.0 micrograms/kg/injection, schedule: Q04DX003 (ip), vehicle: saline + alcohol) was 100 % of control, the T/C (dose: 400.0 micrograms/kg/injection, schedule: Q01DX009 (ip), vehicle: saline + alcohol) was 124 % of control and the T/C (dose: 1200.0 micrograms/kg/injection, schedule: Q04DX003 (ip), vehicle: saline + alcohol) was 93 % of control and 107 % of control.
With `CCN(CC)CCOC(=O)c1ccccc1N(c1ccccc1)c1ccccc1` the T/C (dose: 62.5 mg/kg/injection, schedule: Q01DX009 (ip), vehicle: saline sonified) was 102 % of control, the T/C (dose: 125.0 mg/kg/injection, schedule: Q01DX009 (ip), vehicle: saline sonified) was 89 % of control and the T/C (dose: 250.0 mg/kg/injection, schedule: Q01DX009 (ip), vehicle: saline sonified) was 89 % of control.
